Experimental data reported in ChEMBL document CHEMBL3507680, “University of Dundee, Gates Library screen for HepG2 cell viability”.

Test: Human HepG2 cell viability assay in 384 well format
Format: toxicity, cell-based
Parameters: dose 125 nL, time 70.5 hour; concentration not given beside the values
Details: HepG2 cells, read-out: Inhibition

Structure (SMILES) | cytotoxicity at 70.5 h
Cc1ccnc(NCCCN2CCc3ccccc32)n1 | -2.9%
CSCCCN1CCCC(Cn2ccnc2)C1 (centres undefined) | -11.5%
Cc1ccncc1C(=O)N1CCCC(C(=O)CCc2ccccc2)C1 (centres undefined) | -7.97%
Cc1c(Cl)c(C(=O)N2CC[C@H](N3CCOCC3)[C@H](CCCO)C2)nn1C | 3.03%
CN1CCCC2(CC1)CCN(C(=O)CCc1ccccc1O)CC2 | 6.16%
Cc1cnn(C2(C(=O)O)CCN(Cc3oc4ccccc4c3C)CC2)c1 | -8.33%
CC(C)N1CC(C(=O)NCCc2csc(-c3ccncc3)n2)CC1=O (centres undefined) | 34.8%
CNC(=O)CC1CCN(Cc2nc(-c3ccc(SC)cc3)oc2C)CC1 | -6.83%
CN(C)C(=O)CN1C[C@@H]2CC[C@H](C1)N(Cc1cc(F)ccc1F)C2 | 7.45%
CSc1nccc(N2CCN(C)C3(CCNC(=O)CC3)C2)n1 (centres undefined) | -5.4%
CCCn1nc(C)c(CNC(=O)C2COc3c(cccc3OC)C2)c1C (centres undefined) | -10.5%
COc1cccc([C@@H]2CCN(Cc3ccc4ccccc4n3)C[C@H]2O)c1 | -8.06%
Cc1nccn1CCC1CCCCN1C(=O)c1ccc2[nH]nnc2c1 (centres undefined) | -1.82%
COCCNS(=O)(=O)c1cccc2c1CN(C(=O)c1ccccc1)CC2 | 14.6%
CC(C)CN1CCN(Cc2nc3ccccc3[nH]2)[C@H]2CS(=O)(=O)C[C@H]21 | -11.1%
CC(c1ccccc1)n1c(SCC(=O)O)nnc1-c1ccccc1Cl (centres undefined) | -4%
CC(C)C(=O)NCC(=O)N(C)C1CCCN(C2Cc3ccccc3C2)C1 (centres undefined) | -10.4%
CCS(=O)(=O)N1CCC(c2nnc(CN3CCCC3)n2C2CC2)CC1 | -11.4%
Cc1ccccc1C(=O)N1CCOC2(CNCCOC2)C1 (centres undefined) | -4.46%
O=C(CCCc1ccc(F)cc1)N1C[C@@H](CN2CCOCC2)[C@@H](CO)C1 | -2.56%

Structure (SMILES) | cytotoxicity at 70.5 h
Cc1cc(-c2nn(C)c(Cl)c2CN2CCOCC(O)C2)no1 (centres undefined) | -11.6%
CN(CC1(O)CCCN(CCC2CCCCC2)C1=O)C1CCOCC1 (centres undefined) | -5.64%
COc1cccn(CC(=O)N(C)Cc2ccoc2)c1=O | 1.59%
CC(CN1CCC2(CC1)c1nc[nH]c1CCN2S(C)(=O)=O)C(F)(F)F (centres undefined) | -1.86%
CCOCCOc1ccccc1C(=O)N1CCCC(c2ncc[nH]2)C1 (centres undefined) | -5%
O=C(c1cccnc1)N1C[C@@H]2CC[C@H](C1)N(Cc1cccc(Cl)c1F)C2 | -1.34%
COCCN(C)CCN1CC2(CCN(C3CCCOC3)CC2)OC1=O (centres undefined) | 3.4%
Cc1ccc2c(c1)c(CNC(=O)C1CCN(C(C)C)CC1)nn2C | -14.4%
CN1CC(c2ccccc2)CC12CCN(C(=O)c1cncc(Cl)c1)CC2 (centres undefined) | -8.59%
CCn1cc(CN2CCC(c3nnc(CN(C)C)n3CC)CC2)cn1 | 10.9%
COCCN1CCCC(c2nc3c([nH]2)CC(C)(C)CNC3=O)C1 (centres undefined) | -3%
Cc1nonc1CN(C)CC1(O)CCCN(CCC2CCCCC2)C1=O (centres undefined) | 2.77%
CN(C)C(=O)N1CCN(C(=O)CCc2ccccc2)[C@H]2CS(=O)(=O)C[C@H]21 | -5.59%
CSCCNC(=O)c1ccc(OC2CCN(CC(C)(C)C)CC2)c(Cl)c1 | -7.8%
Cc1cc(C)nc(CCNC(=O)C(c2ccc(F)cc2)N(C)C)n1 (centres undefined) | 30.5%
CN(C)C(=O)CCCNC(=O)C(c1cccc(F)c1)N(C)C (centres undefined) | 3.05%
Cc1cc(-c2nn(C)c(Cl)c2CN2Cc3ccccc3C(O)C2)no1 (centres undefined) | -11.3%
COc1cccc2c1OCC(C(=O)N(C)CCCc1cnn(C)c1)C2 (centres undefined) | -1.77%
O=C(c1cccnc1)N1C[C@@H]2CC[C@H](C1)N(Cc1cc(F)ccc1F)C2 | -5.88%
